The test concerns remaining 398 kinases. In words: SelectScreen Broad Assay Panel, summary. It counts as biochemical. Conditions: 1 µM. Here is the method: The in vitro kinase selectivity of NU5455 was determined using the SelectScreen Broad Assay Panel (Thermo Fisher Scientific) involving activity and binding assays (Supplemental Table 1). […] Class IA PI3Ks were measured using the p85α subunit.
Kinase [ATP] % Assay Kinase [ATP] % Assay Kinase [ATP] % Assay Kinase [ATP] % Assay
DNA-PK Km app 98.3 Z LATS2 n/a 4.7 L KIT D820E n/a 1.3 L GSK3B (GSK3 beta) Km app -2.5 Z
PIK3C3 (hVPS34) Km app 85.9 A PRKCZ (PKC zeta) Km app 4.7 Z GRK1 n/a 1.3 L BMPR2 n/a -2.5 L
PIK3C2B (PI3K-C2 beta) 10 28.9 A FGFR1 Km app 4.7 Z BRSK2 n/a 1.2 L CDC42 BPB (MRCKB) Km app -2.5 Z
SNF1LK2 Km app 26.6 Z MINK1 Km app 4.6 Z NUAK1 (ARK5) Km app 1.2 A AMPK (A2/B2/G2) n/a -2.6 L
HCK Km app 18.0 Z CSF1R (FMS) Km app 4.3 Z CDK9/cyclin K n/a 1.0 L PRKG1 Km app -2.7 Z
NEK2 Km app 17.8 Z CSNK1G3 (CK1 gamma 3) Km app 4.2 Z NUAK2 n/a 1.0 L KIT T670E n/a -2.8 L
ALK Km app 17.3 Z STK32C (YANK3) n/a 4.2 L CDK2/cyclin O n/a 0.9 L ERBB4 (HER4) Km app -2.8 Z
FGFR3 K650M n/a 16.5 L STK22D (TSSK1) Km app 4.2 Z CAMKK2 (CaMKK beta) n/a 0.9 L PLK4 n/a -2.8 L
SIK3 n/a 16.1 L TAOK3 (JIK) n/a 4.2 L FGFR3 Km app 0.9 Z GRK7 Km app -3.0 Z
LYN A Km app 15.2 Z RPS6KA4 (MSK2) Km app 4.2 Z ULK2 n/a 0.9 L MAPKAPK2 Km app -3.1 Z
BMPR1B (ALK6) n/a 14.5 L PTK2B (FAK2) Km app 4.2 Z KIT D816V n/a 0.9 L FGFR4 Km app -3.1 Z
INSRR (IRR) Km app 14.1 Z CLK2 Km app 4.1 Z CAMK1 (CaMK1) 10 0.8 A CASK n/a -3.1 L […]

With `CN(C(=O)CN1CCOCC1)c1ccc2sc3c(-c4cccc5c(=O)cc(N6CC7CCC(C6)O7)oc45)cccc3c2c1` [NU5455], the “inhibition in the majority of the remaining 398 kinases” value is “less than 10%”.

The record behind these values is article PMC6934184, “Selective DNA-PKcs inhibition extends the therapeutic index of localized radiotherapy and chemotherapy” (The Journal of Clinical Investigation, 2019).
